# Assay results taken from publication PMC5578959, “Selective LRRK2 kinase inhibition reduces phosphorylation of endogenous Rab10 and Rab12 in human peripheral mononuclear blood cells” (Scientific Reports, 2017).
# Tests used:
# Experiment in all cases: KiNativ profiling in human PBMCs
# Type in all cases: binding
# FES = system: T1, FES; conditions: Lys1
# T1 construct: purchased ActivX Technologies (KiNativ)
# Outline: (§1)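 PBMCs treated in live-cell format, compound 1 µM / 0.1 µM; kinase profiling by KiNativ methodology.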
# MAP3K4 = system: T2, MAP3K4; conditions: Lys2
# T2 construct: purchased ActivX Technologies (KiNativ)
# Outline: as §1
# SGK3 = system: T3, SGK3; conditions: Lys2
# T3 construct: purchased ActivX Technologies (KiNativ)
# Outline: as §1
# AKT1 = system: T4, AKT1; conditions: ATP Loop
# T4 construct: purchased ActivX Technologies (KiNativ)
# Outline: as §1
# SNRK = system: T5, SNRK; conditions: Lys2
# T5 construct: purchased ActivX Technologies (KiNativ)
# Outline: as §1
# GSK3A = system: T6, GSK3A; conditions: Lys2
# T6 construct: purchased ActivX Technologies (KiNativ)
# Outline: as §1
# NEK8 = system: T7, NEK8; conditions: Lys2
# T7 construct: purchased ActivX Technologies (KiNativ)
# Outline: as §1
# JAK1 domain2 = system: T8, JAK1 domain2
# T8 construct: JAK1 domain2; purchased ActivX Technologies (KiNativ)
# Outline: as §1
# PKN1 = system: T9, PKN1; conditions: Lys1
# T9 construct: purchased ActivX Technologies (KiNativ)
# Outline: as §1
# NuaK2 = system: T10, NuaK2; conditions: Lys1
# T10 construct: purchased ActivX Technologies (KiNativ)
# Outline: as §1
# BRAF = system: T11, BRAF; conditions: Lys2
# T11 construct: purchased ActivX Technologies (KiNativ)
# Outline: as §1
# MARK2,MARK3 = conditions: Lys2
# Outline: as §1
# ABL,ARG = conditions: Activation Loop
# Outline: as §1
# ULK1 = system: T12, ULK1; conditions: Lys2
# T12 construct: purchased ActivX Technologies (KiNativ)
# Outline: as §1
# RIPK3 = system: T13, RIPK3; conditions: Lys2
# T13 construct: purchased ActivX Technologies (KiNativ)
# Outline: as §1
# MST2 = system: T14, MST2; conditions: 1µM; Lys1
# T14 construct: purchased ActivX Technologies (KiNativ)
# Outline: as §1
# MAP2K6 = system: T15, MAP2K6
# T15 construct: purchased ActivX Technologies (KiNativ)
# Outline: as §1
# NEK9 = system: T16, NEK9
# T16 construct: purchased ActivX Technologies (KiNativ)
# Outline: as §1
# PLK1 = system: T17, PLK1; conditions: Lys1
# T17 construct: purchased ActivX Technologies (KiNativ)
# Outline: as §1
# NEK4 = system: T18, NEK4; conditions: Lys2
# T18 construct: purchased ActivX Technologies (KiNativ)
# Outline: as §1
# GCN2 = system: T19, GCN2; conditions: Lys2
# T19 construct: purchased ActivX Technologies (KiNativ)
# Outline: as §1
# IRAK1 = system: T20, IRAK1; conditions: Lys2
# T20 construct: purchased ActivX Technologies (KiNativ)
# Outline: as §1
# MAP2K7 = system: T21, MAP2K7; conditions: Lys2
# T21 construct: purchased ActivX Technologies (KiNativ)
# Outline: as §1
# IKKe = system: T22, IKKe; conditions: Lys1
# T22 construct: purchased ActivX Technologies (KiNativ)
# Outline: as §1
# Erk2 = system: T23, Erk2; conditions: Lys2
# T23 construct: purchased ActivX Technologies (KiNativ)
# Outline: as §1
# ARAF = system: T24, ARAF; conditions: Lys2
# T24 construct: purchased ActivX Technologies (KiNativ)
# Outline: as §1
# JAK3 domain2 = system: T25, JAK3 domain2
# T25 construct: JAK3 domain2; purchased ActivX Technologies (KiNativ)
# Outline: as §1
# DNAPK = system: T26, DNAPK; conditions: ATP
# T26 construct: purchased ActivX Technologies (KiNativ)
# Outline: as §1
# CDK7 = system: T27, CDK7
# T27 construct: purchased ActivX Technologies (KiNativ)
# Outline: as §1
# ULK3 = system: T28, ULK3
# T28 construct: purchased ActivX Technologies (KiNativ)
# Outline: as §1
# p38a = system: T29, p38a
# T29 construct: purchased ActivX Technologies (KiNativ)
# Outline: as §1
# ZAP70 = system: T30, ZAP70
# T30 construct: purchased ActivX Technologies (KiNativ)
# Outline: as §1
# MST4,YSK1 = conditions: Lys2
# Outline: as §1
# FYN,SRC,YES = conditions: Activation Loop
# Outline: as §1
# Erk5 = system: T31, Erk5; conditions: Lys2
# T31 construct: purchased ActivX Technologies (KiNativ)
# Outline: as §1
# PFTAIRE1 = system: T32, PFTAIRE1; conditions: Lys1
# T32 construct: purchased ActivX Technologies (KiNativ)
# Outline: as §1
structure (smiles),measurement,setting,value
Cc1cccc(-c2cc(Nc3ccn(C)n3)nc3[nH]cc(C#N)c23)c1 [Lu AF58786],Inhibition,FES; 0.1µM,13.9%
same,Inhibition,FES; 1µM,9.3%
same,Inhibition,MAP3K4; 0.1µM,11.1%
same,Inhibition,MAP3K4; 1µM,-2.7%
same,Inhibition,SGK3; 0.1µM,-8.9%
same,Inhibition,SGK3; 1µM,13.9%
same,Inhibition,AKT1; 0.1µM,7.0%
same,Inhibition,AKT1; 1µM,-7.5%
same,Inhibition,SNRK; 0.1µM,22.5%
same,Inhibition,SNRK; 1µM,15.1%
same,Inhibition,GSK3A; 0.1µM,13.7%
same,Inhibition,GSK3A; 1µM,27.3%
same,Inhibition,NEK8; 0.1µM,-2.3%
same,Inhibition,NEK8; 1µM,-10.4%
same,Inhibition,"JAK1 domain2; 0.1µM, Activation Loop",0.9%
same,Inhibition,"JAK1 domain2; 0.1µM, Lys1",-25.0%
same,Inhibition,"JAK1 domain2; 1µM, Activation Loop",-39.0%
same,Inhibition,"JAK1 domain2; 1µM, Lys1",-35.1%
same,Inhibition,PKN1; 0.1µM,18.4%
same,Inhibition,PKN1; 1µM,13.6%
same,Inhibition,NuaK2; 0.1µM,20.0%
same,Inhibition,NuaK2; 1µM,38.2%
same,Inhibition,BRAF; 0.1µM,6.1%
same,Inhibition,BRAF; 1µM,-13.8%
same,Inhibition,"MARK2,MARK3; 0.1µM",-38.4%
same,Inhibition,"MARK2,MARK3; 1µM",-36.2%
same,Inhibition,"ABL,ARG; 0.1µM",-81.9%
same,Inhibition,"ABL,ARG; 1µM",-7.3%
same,Inhibition,ULK1; 0.1µM,-3.7%
same,Inhibition,ULK1; 1µM,-7.0%
same,Inhibition,RIPK3; 0.1µM,2.4%
same,Inhibition,RIPK3; 1µM,-10.9%
same,Inhibition,MST2,11.8%
same,Inhibition,"MAP2K6; 0.1µM, Lys1",2.0%
same,Inhibition,"MAP2K6; 0.1µM, Lys2",5.6%
same,Inhibition,"MAP2K6; 1µM, Lys1",2.8%
same,Inhibition,"MAP2K6; 1µM, Lys2",-7.5%
same,Inhibition,"NEK9; 0.1µM, Lys1",8.4%
same,Inhibition,"NEK9; 0.1µM, Lys2",12.6%
same,Inhibition,"NEK9; 1µM, Lys1",-0.0314%
same,Inhibition,"NEK9; 1µM, Lys2",-3.7%
same,Inhibition,PLK1; 0.1µM,-7.7%
same,Inhibition,PLK1; 1µM,-19.7%
same,Inhibition,NEK4; 0.1µM,-32.0%
same,Inhibition,NEK4; 1µM,-14.9%
same,Inhibition,GCN2; 0.1µM,-20.3%
same,Inhibition,GCN2; 1µM,-15.5%
same,Inhibition,IRAK1; 0.1µM,3.0%
same,Inhibition,IRAK1; 1µM,1.7%
same,Inhibition,MAP2K7; 0.1µM,18.1%
same,Inhibition,MAP2K7; 1µM,-7.3%
same,Inhibition,IKKe; 0.1µM,8.3%
same,Inhibition,IKKe; 1µM,-0.117%
same,Inhibition,Erk2; 0.1µM,2.4%
same,Inhibition,Erk2; 1µM,1.7%
same,Inhibition,ARAF; 0.1µM,-4.9%
same,Inhibition,ARAF; 1µM,-4.5%
same,Inhibition,"JAK3 domain2; 0.1µM, Activation Loop",4.0%
same,Inhibition,"JAK3 domain2; 0.1µM, Lys1",12.9%
same,Inhibition,"JAK3 domain2; 1µM, Activation Loop",52.9%
same,Inhibition,"JAK3 domain2; 1µM, Lys1",20.6%
same,Inhibition,"DNAPK; 0.1 µM, EHPFLVKGGEDLR",19.6%
same,Inhibition,"DNAPK; 0.1 µM, KGGSWIQEINVAEK",-21.8%
same,Inhibition,"DNAPK; 1 µM, KGGSWIQEINVAEK",2.3%
same,Inhibition,"CDK7; 0.1µM, Lys1",3.7%
same,Inhibition,"CDK7; 0.1µM, Lys2",9.8%
same,Inhibition,"CDK7; 1µM, Lys1",-0.256%
same,Inhibition,"CDK7; 1µM, Lys2",18.0%
same,Inhibition,"ULK3; 0.1µM, Lys1",3.2%
same,Inhibition,"ULK3; 0.1µM, Lys2",-16.6%
same,Inhibition,"ULK3; 1µM, Lys1",2.2%
same,Inhibition,"ULK3; 1µM, Lys2",-15.6%
same,Inhibition,"p38a; 0.1µM, Lys2",0.7%
same,Inhibition,"p38a; 0.1 µM, Other",-1.7%
same,Inhibition,"p38a; 1µM, Lys2",-4.6%
same,Inhibition,"p38a; 1 µM, Other",-7.7%
same,Inhibition,"ZAP70; 0.1µM, Activation Loop",14.7%
same,Inhibition,"ZAP70; 0.1µM, Lys1",4.6%
same,Inhibition,"ZAP70; 1µM, Activation Loop",7.0%
same,Inhibition,"ZAP70; 1µM, Lys1",7.9%
same,Inhibition,"MST4,YSK1; 0.1µM",22.5%
same,Inhibition,"MST4,YSK1; 1µM",4.6%
same,Inhibition,"FYN,SRC,YES; 0.1µM",-6.7%
same,Inhibition,"FYN,SRC,YES; 1µM",-2.5%
same,Inhibition,Erk5; 0.1µM,2.1%
same,Inhibition,Erk5; 1µM,10.9%
same,Inhibition,PFTAIRE1; 0.1µM,5.8%
same,Inhibition,PFTAIRE1; 1µM,-10.2%
